# Like-named read-outs stand apart in the source and are kept apart here. Bridge positions count the residues as written; N and C are the ends. Square brackets hold non-standard residues; d marks the D form. Peptide text beside a SMILES is read from it. R8 = C=CCCCCCC[C@@](C)(N)C(=O)O; R5 = C=CCCC[C@@](C)(N)C(=O)O; S5 = C=CCCC[C@](C)(N)C(=O)O
# Assays:
# FAK FAT domain = target: T1, FAK FAT domain (Homo sapiens, UniProt Q05397); test: SPR binding to immobilized biotinylated FAK FAT
# T1 sequence (Q05397 914-1045 limits assumed): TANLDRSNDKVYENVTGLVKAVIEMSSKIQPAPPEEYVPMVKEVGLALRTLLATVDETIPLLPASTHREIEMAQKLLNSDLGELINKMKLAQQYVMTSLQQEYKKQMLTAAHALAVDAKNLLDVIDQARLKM
# Description: SPR binding studies were performed using biotinylated FAK FAT protein[51]. Briefly, SPR binding assays were performed on a ForteBio Pioneer FE SPR system using SPR running buffer (100 mM Tris-Cl pH 8.0, 200 mM NaCl, and 0.05% Tween-20). […] Desired immobilization levels were determined utilizing the following Eq. 1:1 Rmax=RproteinxMranalyte/MrproteinxVprotein where Rmax is the highest possible response of binding between the analyte and the protein, Rprotein is the change in response by the immobilization of the protein, Mr represents the mass of the analyte or protein, and Vprotein represents the number of binding sites on the protein. A target Rmax of approximately 100 RU was chosen.
# All samples were diluted in the SPR buffer to a volume of 200 µl and injected using the OneStep gradient injection system at a flow rate of 150 µl/min. For a bulk standard control, a 3% (w\v) solution of sucrose in SPR buffer was used for injection. […] SPR data analysis utilized Qdat software (ForteBio, version 4.3.2 build 8) for normalization of the baseline prior to injection, channel alignment, and reference channel and blank subtraction.
# [1] = target: T2, FAK FAT / TAMRA-paxillin LD2 L10D (Homo sapiens, UniProt Q05397); test: Fluorescence polarization competition (FAK-paxillin) assay; type: binding
# T2 construct: assay was performed using FAK FAT protein and TAMRA-LD2 L10D peptide
# T2 sequence (Q05397 919-1052): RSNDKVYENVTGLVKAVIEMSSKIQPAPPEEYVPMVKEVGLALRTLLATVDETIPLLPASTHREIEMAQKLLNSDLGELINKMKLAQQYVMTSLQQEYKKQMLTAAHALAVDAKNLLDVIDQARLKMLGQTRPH
# Description: The IC50 was calculated using a four-parameter dose-response inhibition model, with the bottom fit constrained to the lower plateau of the binding curve.
# trypsin = test: Trypsin proteolytic resistance assay; details: immobilized trypsin-agarose resin
# Description: Cell permeability of peptide drugs was determined by fluorescence measurement of TAMRA-labeled peptides in 96-well plates and ClarioStar Plus plate reader using BMG ClarioStar MARS software (version 4.20). […] Percent uptake was calculated as background-subtracted fluorescence absorbed by cells/fluorescence of peptide in media-only wells, then made relative to TAMRA-Alkyne. Three biological replicates (n = 3) were performed per cell line per treatment group. Peptide proteolysis was measured using immobilized Trypsin-agarose resin (Thermo Fisher) and quantification by LC-MS. […] In vivo pharmacokinetics were performed by the UACC Analytical Chemistry Shared Resource. […] The mice were fed NIH-31 irradiated pellets (Tekland Premier, Madison, Wisconsin), and reverse osmosis water was freely available. […] The average plasma concentration versus time data were analyzed using PKSolver (version 2.0) by a noncompartmental approach.
# Plasma stability = details: mouse plasma
# [2] = one-site kinetic fit, mean ± SD of n = 2-5 biological replicates, Tris pH 8.0, read-out: SPR KD
structure (smiles),measurement,setting,value
CC(=O)N[C@@H](CC(N)=O)C(=O)N[C@@H](CC(C)C)C(=O)N[C@@H](CO)C(=O)N[C@]1(C)CCCCCCC=CCCC[C@@](C)(C(=O)N[C@@H](CC(C)C)C(=O)N[C@@H](CC(N)=O)C(N)=O)NC(=O)[C@H](CC(C)C)NC(=O)[C@H](CC(C)C)NC(=O)[C@H](CC(C)C)NC(=O)[C@H](CCCNC(=N)N)NC(=O)[C@H](CC(=O)O)NC(=O)[C@H](CC(C)C)NC1=O [compound 1905] (Ac-NLS[R8]LDRLLL[S5]LN-NH2; staple 4-11),Kd,FAK FAT domain; [2],146 µM
same,Ki,"[1]; Rep1, read-out: FP (Ki) data",> 1250 µM
same,Ki,"[1]; Rep2, read-out: FP (Ki) data",> 1250 µM
same,Ki,"[1]; Rep3, read-out: FP (Ki) data",> 1250 µM
CC(=O)N[C@@H](CC(N)=O)C(=O)N[C@@H](CC(C)C)C(=O)N[C@]1(C)CCCCCCC=CCCC[C@@](C)(C(=O)N[C@@H](CCC(=O)O)C(=O)N[C@@H](CC(C)C)C(=O)N[C@@H](CC(N)=O)C(N)=O)NC(=O)[C@H](CC(C)C)NC(=O)[C@H](CC(C)C)NC(=O)[C@H](CCCNC(=N)N)NC(=O)[C@H](CC(=O)O)NC(=O)[C@H](CC(C)C)NC(=O)[C@H](CCC(=O)O)NC1=O [compound 1907],half-life at 100 µM,trypsin,28.4 h
same,"remaining at 0.25 h, 100 µM",trypsin,80%
same,"remaining at 0.5 h, 100 µM",trypsin,73%
same,"remaining at 1 h, 100 µM",trypsin,72%
same,"remaining at 2 h, 100 µM",trypsin,73%
same,"remaining at 3 h, 100 µM",trypsin,62%
same,"remaining at 4 h, 100 µM",trypsin,58%
same,"remaining at 8 h, 100 µM",trypsin,56%
same,"remaining at 24 h, 100 µM",trypsin,43%
same,"remaining at 48 h, 100 µM",trypsin,31%
CC(=O)N[C@@H](CC(N)=O)C(=O)N[C@@H](CC(C)C)C(=O)N[C@]1(C)CCCCCCC=CCCC[C@@](C)(C(=O)N[C@@H](CCC(N)=O)C(=O)N[C@@H](CC(C)C)C(=O)N[C@@H](CC(N)=O)C(N)=O)NC(=O)[C@H](CC(C)C)NC(=O)[C@H](CC(C)C)NC(=O)[C@H](CCCNC(=N)N)NC(=O)[C@H](CC(=O)O)NC(=O)[C@H](CC(C)C)NC(=O)[C@H](CCC(N)=O)NC1=O [compound 1910] (Ac-NL[R8]QLDRLL[S5]QLN-NH2; staple 3-10),Kd,FAK FAT domain; [2],22.6 µM
CC(=O)N[C@@H](CC(N)=O)C(=O)N[C@@H](CC(C)C)C(=O)N[C@@H](CO)C(=O)N[C@@H](CCC(=O)O)C(=O)N[C@]1(C)CCCCCCC=CCCC[C@@](C)(C(=O)N[C@@H](CC(N)=O)C(N)=O)NC(=O)[C@H](CCC(=O)O)NC(=O)[C@H](CC(C)C)NC(=O)[C@H](CC(C)C)NC(=O)[C@H](CC(C)C)NC(=O)[C@H](CCCNC(=N)N)NC(=O)[C@H](CC(=O)O)NC1=O [compound 1914] (Ac-NLSE[R8]DRLLLE[S5]N-NH2; staple 5-12),Kd,FAK FAT domain; [2],120 µM
same,Ki,"[1]; Rep1, read-out: FP (Ki) data",> 1250 µM
same,Ki,"[1]; Rep2, read-out: FP (Ki) data",> 1250 µM
same,Ki,"[1]; Rep3, read-out: FP (Ki) data",> 1250 µM
CC(=O)N[C@@H](CC(N)=O)C(=O)N[C@@H](CC(C)C)C(=O)N[C@@H](CO)C(=O)N[C@@H](CCC(=O)O)C(=O)N[C@@]1(C)CCCC=CCCC[C@@](C)(C(=O)N[C@@H](CC(C)C)C(=O)N[C@@H](CCC(=O)O)C(=O)N[C@@H](CC(C)C)C(=O)N[C@@H](CC(N)=O)C(N)=O)NC(=O)[C@H](CC(C)C)NC(=O)[C@H](CCCNC(=N)N)NC(=O)[C@H](CC(=O)O)NC1=O [compound 1919] (Ac-NLSE[S5]DRL[S5]LELN-NH2; staple 5-9),Kd,FAK FAT domain; [2],80.6 µM
CC(=O)N[C@@H](CO)C(=O)N[C@@H](CC(C)C)C(=O)NCC(=O)N[C@@H](CO)C(=O)N[C@@H](CC(N)=O)C(=O)N[C@@H](CC(C)C)C(=O)N[C@]1(C)CCCCCCC=CCCC[C@@](C)(C(=O)N[C@@H](CCC(=O)O)C(=O)N[C@@H](CC(C)C)C(=O)N[C@@H](CC(N)=O)C(=O)N[C@@H](C)C(=O)N[C@H](C(=O)N[C@@H](CCC(N)=O)C(=O)N[C@@H](Cc2c[nH]cn2)C(N)=O)C(C)C)NC(=O)[C@H](CC(C)C)NC(=O)[C@H](CC(C)C)NC(=O)[C@H](CCCNC(=N)N)NC(=O)[C@H](CC(=O)O)NC(=O)[C@H](CC(C)C)NC(=O)[C@H](CCC(=O)O)NC1=O [compound 1920] (Ac-SLGSNL[R8]ELDRLL[S5]ELNAVQH-NH2; staple 7-14),Kd,"FAK FAT domain; two-site model, site 1, mean ± SD, read-out: SPR KD1",0.9 ± 0.5 µM
same,Kd,"FAK FAT domain; two-site model, site 2, mean ± SD, read-out: SPR KD2",9.8 ± 6.9 µM
CC(=O)N[C@@H](CC(N)=O)C(=O)N[C@@H](CC(C)C)C(=O)N[C@@H](CO)C(=O)N[C@@H](CCC(=O)O)C(=O)N[C@@H](CC(C)C)C(=O)N[C@@H](CC(=O)O)C(=O)N[C@@H](CCCNC(=N)N)C(=O)N[C@@H](CC(C)C)C(=O)N[C@]1(C)CCCC=CCCC[C@@](C)(C(=O)N[C@@H](CC(N)=O)C(N)=O)NC(=O)[C@H](CCC(=O)O)NC(=O)[C@H](CC(C)C)NC1=O [compound 1921] (Ac-NLSELDRL[R5]LE[S5]N-NH2; staple 9-12),Kd,"FAK FAT domain; Rep1, read-out: SPR (KD)",> 200 µM
same,Kd,"FAK FAT domain; Rep2, read-out: SPR (KD)",> 200 µM
same,Kd,"FAK FAT domain; Rep3, read-out: SPR (KD)",> 200 µM
same,Kd,FAK FAT domain; [2],> 200 µM
CC(=O)N[C@@H](CC(N)=O)C(=O)N[C@@H](CC(C)C)C(=O)N[C@]1(C)CCCCCCC=CCCC[C@@](C)(C(=O)N[C@@H](CCC(=O)O)C(=O)N[C@@H](CC(C)C)C(=O)N[C@@H](CC(N)=O)C(N)=O)NC(=O)[C@H](Cc2c[nH]c3ccccc23)NC(=O)[C@H](CC(C)C)NC(=O)[C@H](CCCNC(=N)N)NC(=O)[C@H](CC(=O)O)NC(=O)[C@H](CC(C)C)NC(=O)[C@H](CCC(=O)O)NC1=O [compound 2007],Kd,FAK FAT domain; [2],60.6 µM
CC(=O)N[C@@H](CC(N)=O)C(=O)N[C@@H](CC(C)C)C(=O)N[C@]1(C)CCCCCCC=CCCC[C@@](C)(C(=O)N[C@@H](CCC(=O)O)C(=O)N[C@@H](CC(C)C)C(=O)N[C@@H](CC(N)=O)C(N)=O)NC(=O)[C@H](CC(C)C)NC(=O)[C@H](CC(C)C)NC(=O)[C@H](CCCNC(=N)N)NC(=O)[C@H](CC(=O)O)NC(=O)[C@H](CC(C)C)NC(=O)[C@H](C)NC1=O [compound 2009],Kd,FAK FAT domain; [2],3.4 µM
CC(=O)N[C@]1(C)CCCCCCC=CCCC[C@@](C)(C(N)=O)NC(=O)[C@H](CC(C)C)NC(=O)[C@H](CC(C)C)NC(=O)[C@H](CCCNC(=N)N)NC(=O)[C@H](CC(=O)O)NC(=O)[C@H](CC(C)C)NC(=O)[C@H](CCC(=O)O)NC1=O [compound 2011] (Ac-[R8]ELDRLL[S5]-NH2; staple 1-8),Kd,"FAK FAT domain; Rep1, read-out: SPR (KD)",> 200 µM
same,Kd,"FAK FAT domain; Rep2, read-out: SPR (KD)",> 200 µM
same,Kd,"FAK FAT domain; Rep3, read-out: SPR (KD)",> 200 µM
same,Kd,"FAK FAT domain; read-out: SPR KD, pH 8",> 200 µM
same,Ki,[1],> 333 µM
same,Ki,"[1]; Rep2, read-out: FP (Ki) data",> 333 µM
CC(=O)N[C@@H](CC(N)=O)C(=O)N[C@@H](CC(C)C)C(=O)N[C@@H](CO)C(=O)N[C@@H](CCC(=O)O)C(=O)N[C@@H](CC(C)C)C(=O)N[C@@H](CC(=O)O)C(=O)N[C@@H](CCCNC(=N)N)C(=O)N[C@@]1(C)CCCC=CCCC[C@@](C)(C(=O)N[C@@H](CC(N)=O)C(N)=O)NC(=O)[C@H](CCC(=O)O)NC(=O)[C@H](CC(C)C)NC(=O)[C@H](CC(C)C)NC1=O [compound 2015] (Ac-NLSELDR[S5]LLE[S5]N-NH2; staple 8-12),Kd,FAK FAT domain,30.6 µM
CC(=O)N[C@@H](CC(N)=O)C(=O)N[C@]1(C)CCCCCCC=CCCC[C@@](C)(C(=O)N[C@@H](CC(C)C)C(=O)N[C@@H](CCC(=O)O)C(=O)N[C@@H](CC(C)C)C(=O)N[C@@H](CC(N)=O)C(N)=O)NC(=O)[C@H](CC(C)C)NC(=O)[C@H](CCCNC(=N)N)NC(=O)[C@H](CC(=O)O)NC(=O)[C@H](CC(C)C)NC(=O)[C@H](CCC(=O)O)NC(=O)[C@H](CO)NC1=O [compound 2017] (Ac-N[R8]SELDRL[S5]LELN-NH2; staple 2-9),Kd,FAK FAT domain; [2],27.9 µM
CC(C)[N+](C)(CCOC(=O)C1c2ccccc2Oc2ccccc21)C(C)C [propantheline bromide],% remaining in plasma,"Plasma stability; 0 min, Rep1",105%
same,% remaining in plasma,"Plasma stability; 0 min, Rep2",100%
same,% remaining in plasma,"Plasma stability; 0 min, Rep3",95%
same,% remaining in plasma,"Plasma stability; 15 min, Rep1",85%
same,% remaining in plasma,"Plasma stability; 15 min, Rep2",78%
same,% remaining in plasma,"Plasma stability; 15 min, Rep3",86%
same,% remaining in plasma,"Plasma stability; 30 min, Rep1",73%
same,% remaining in plasma,"Plasma stability; 30 min, Rep2",70%
same,% remaining in plasma,"Plasma stability; 30 min, Rep3",68%
same,% remaining in plasma,"Plasma stability; 60 min, Rep1",58%
same,% remaining in plasma,"Plasma stability; 60 min, Rep2",52%
same,% remaining in plasma,"Plasma stability; 60 min, Rep3",50%
same,% remaining in plasma,"Plasma stability; 90 min, Rep1",30%
same,% remaining in plasma,"Plasma stability; 90 min, Rep2",42%
same,% remaining in plasma,"Plasma stability; 90 min, Rep3",36%
same,% remaining in plasma,"Plasma stability; 120 min, Rep1",29%
same,% remaining in plasma,"Plasma stability; 120 min, Rep2",31%
same,% remaining in plasma,"Plasma stability; 120 min, Rep3",27%
same,plasma stability t1/2,Plasma stability; n = 3,1.1 h
